{"source": "paper PMC6405842", "about": "“Identification of a novel scaffold for a small molecule GPR139 receptor agonist” (Scientific Reports, 2019)", "assay_type_in_all_cases": "cell-based", "key": {"GPR139 F109A^3×33": {"biological_target": "T1, GPR139 F109A^3×33 (Homo sapiens, UniProt Q6DWJ6, F109A)", "T1 construct": "myc (N); expressed in transfected cells", "T1 sequence (Q6DWJ6 1-353 F109A)": "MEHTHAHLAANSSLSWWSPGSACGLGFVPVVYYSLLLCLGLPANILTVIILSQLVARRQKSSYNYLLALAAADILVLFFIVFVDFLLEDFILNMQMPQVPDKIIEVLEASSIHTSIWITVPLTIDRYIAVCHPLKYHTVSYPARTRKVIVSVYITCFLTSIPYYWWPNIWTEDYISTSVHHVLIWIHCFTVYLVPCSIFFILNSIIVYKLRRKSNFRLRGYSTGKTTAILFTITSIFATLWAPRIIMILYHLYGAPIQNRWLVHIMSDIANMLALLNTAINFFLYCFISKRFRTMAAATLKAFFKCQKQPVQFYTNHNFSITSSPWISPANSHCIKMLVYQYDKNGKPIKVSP", "assay": "Ca2+ mobilization on GPR139 mutant F109A", "experimental": "(§1) Figure 4 Ca^2+ mobilization concentration-response curves of AC4 on GPR139 wild-type (WT) and mutants. Data is shown from a representative experiment (mean ± S.D.) out of three independent experiments performed in duplicate. Data is normalized to the Ca^2+ response of buffer (0%) and 100 μM AC4 (100%) on myc-GPR139(WT). Residue numbering in superscript is according to GPCRdb numbering system.\n(§2) The mutational studies were performed as previously described."}, "GPR139 W241H^6×48": {"biological_target": "T2, GPR139 W241H^6×48 (Homo sapiens, UniProt Q6DWJ6, W241H)", "T2 construct": "myc (N); expressed in transfected cells", "T2 sequence (Q6DWJ6 1-353 W241H)": "T1 sequence (Q6DWJ6 1-353 F109A) with A109F, W241H", "assay": "Ca2+ mobilization on GPR139 mutant W241H", "experimental": "as §1, §2"}, "GPR139 N271A^7×38": {"biological_target": "T3, GPR139 N271A^7×38 (Homo sapiens, UniProt Q6DWJ6, N271A)", "T3 construct": "myc (N); expressed in transfected cells", "T3 sequence (Q6DWJ6 1-353 N271A)": "T1 sequence (Q6DWJ6 1-353 F109A) with A109F, N271A", "assay": "Ca2+ mobilization on GPR139 mutant N271A", "experimental": "as §1, §2"}}, "note": "Residue numbers refer to the chain shown, from its start.", "data": [{"smiles": "O=C(O)C1CC=CCC1c1nnc(CSc2ccc(Cl)cc2)o1", "note": "(stereo not shown) [AC4]", "values": [{"measurement": "Ca2+ response", "setting": "GPR139 F109A^3×33", "value": "no measurable Ca^2+ response"}, {"measurement": "Emax", "setting": "GPR139 W241H^6×48; mutant W241H, n = 3", "value": "37 ± 3", "unit": "%"}, {"measurement": "fold change of EC50 on W241H versus WT", "setting": "GPR139 W241H^6×48; printed as lower EC50 than on WT", "value": 12, "unit": "fold"}, {"measurement": "Ca2+ response", "setting": "GPR139 N271A^7×38", "value": "no measurable Ca^2+ response"}]}]}
